In article PMC10385824, “Antiproliferative and Tubulin-Destabilising Effects of 3-(Prop-1-en-2-yl)azetidin-2-Ones and Related Compounds in MCF-7 and MDA-MB-231 Breast Cancer Cells” (Pharmaceuticals, 2023):
Like-named read-outs stand apart in the source and are kept apart here.

Assays:
[1] = tested on: M14; assay: NCI-60 SRB screen, melanoma; format: cell-based, human; conditions: Homo sapiens; M14; five dose 0.01–100 µM, 48 h; read-out: GI50
[2] = tested on: NCI-H226; assay: NCI-60 SRB screen, non-small cell lung cancer; format: cell-based; conditions: Homo sapiens; NCI-H226; five dose 0.01–100 µM, 48 h; read-out: GI50
[3] = tested on: MOLT-4; assay: NCI-60 SRB screen, leukemia; format: cell-based, human; conditions: Homo sapiens; MOLT-4; five dose 0.01–100 µM, 48 h; read-out: GI50
[4] = tested on: MCF-7 human breast cancer cells; assay: cells
[5] = tested on: SF539; assay: NCI-60 SRB screen, CNS cancer; format: cell-based, human; conditions: Homo sapiens, SF-539; SF539; five dose 0.01–100 µM, 48 h; read-out: GI50
[6] = tested on: CAKI-1; assay: NCI-60 SRB screen, renal cancer; format: cell-based, human; conditions: Homo sapiens; CAKI-1; five dose 0.01–100 µM, 48 h; read-out: GI50
[7] = tested on: MDA-MB-468; assay: NCI-60 SRB screen, breast cancer; format: cell-based, human; conditions: Homo sapiens; MDA-MB-468; five dose 0.01–100 µM, 48 h; read-out: GI50
[8] = tested on: NCI-H332M; assay: NCI-60 SRB screen, non-small cell lung cancer; format: cell-based; conditions: Homo sapiens, […], five dose 0.01–100 µM, 48 h, read-out: GI50
[9] = tested on: SK-MEL-5; assay: NCI-60 SRB screen, melanoma; format: cell-based, human; conditions: Homo sapiens; SK-MEL-5; five dose 0.01–100 µM, 48 h; read-out: GI50
[10] = tested on: MALME-3M; assay: NCI-60 SRB screen, melanoma; format: cell-based, human; conditions: Homo sapiens; MALME-3M; five dose 0.01–100 µM, 48 h; read-out: GI50
[11] = tested on: SK-MEL-2; assay: NCI-60 SRB screen, melanoma; format: cell-based, human; conditions: Homo sapiens; SK-MEL-2; five dose 0.01–100 µM, 48 h; read-out: GI50
[12] = tested on: NCI-H23; assay: NCI-60 SRB screen, non-small cell lung cancer; format: cell-based, human; conditions: Homo sapiens; NCI-H23; five dose 0.01–100 µM, 48 h; read-out: GI50
[13] = tested on: OVCAR-8; assay: NCI-60 SRB screen, ovarian cancer; format: cell-based, human; conditions: Homo sapiens; OVCAR-8; five dose 0.01–100 µM, 48 h; read-out: GI50
[14] = tested on: ACHN; assay: NCI-60 SRB screen, renal cancer; format: cell-based, human; conditions: Homo sapiens, five dose 0.01–100 µM, 48 h, read-out: GI50
[15] = tested on: DU-145; assay: NCI-60 SRB screen, prostate cancer; format: cell-based, human; conditions: Homo sapiens; DU-145; five dose 0.01–100 µM, 48 h; read-out: GI50
[16] = tested on: MDA-MB-231/ATCC; assay: NCI-60 SRB screen, breast cancer; format: cell-based, human; conditions: Homo sapiens; MDA-MB-231/ATCC; five dose 0.01–100 µM, 48 h; read-out: GI50
[17] = tested on: OVCAR-5; assay: NCI-60 SRB screen, ovarian cancer; format: cell-based, human; conditions: Homo sapiens; OVCAR-5; five dose 0.01–100 µM, 48 h; read-out: GI50
[18] = tested on: HL-60(TB); assay: NCI-60 SRB screen, leukemia; format: cell-based, human; conditions: Homo sapiens
[19] = tested on: PC-3; assay: NCI-60 SRB screen, prostate cancer; format: cell-based, human; conditions: Homo sapiens; PC-3; five dose 0.01–100 µM, 48 h; read-out: GI50
[20] = tested on: NCI-H460; assay: NCI-60 SRB screen, non-small cell lung cancer; format: cell-based, human; conditions: Homo sapiens; NCI-H460; five dose 0.01–100 µM, 48 h; read-out: GI50
[21] = tested on: SF295; assay: NCI-60 SRB screen, CNS cancer; format: cell-based, human; conditions: Homo sapiens, SF-295; SF295; five dose 0.01–100 µM, 48 h; read-out: GI50
[22] = tested on: NCI/ADR-RES; assay: NCI-60 SRB screen, ovarian cancer; format: cell-based, human; conditions: Homo sapiens, five dose 0.01–100 µM, 48 h, read-out: GI50
[23] = tested on: SNB-19; assay: NCI-60 SRB screen, CNS cancer; format: cell-based, human; conditions: Homo sapiens; SNB-19; five dose 0.01–100 µM, 48 h; read-out: GI50
[24] = tested on: SNB-75; assay: NCI-60 SRB screen, CNS cancer; format: cell-based, human; conditions: Homo sapiens; SNB-75; five dose 0.01–100 µM, 48 h; read-out: GI50
[25] = tested on: TK-10; assay: NCI-60 SRB screen, renal cancer; format: cell-based, human; conditions: Homo sapiens; TK-10; five dose 0.01–100 µM, 48 h; read-out: GI50
[26] = tested on: UACC-62; assay: NCI-60 SRB screen, melanoma; format: cell-based, human; conditions: Homo sapiens; UACC-62; five dose 0.01–100 µM, 48 h; read-out: GI50
[27] = tested on: K-562; assay: NCI-60 SRB screen, leukemia; format: cell-based, human; conditions: Homo sapiens, K562, 48 h; read-out: GI50
[28] = HL-60(TB), five dose 0.01–100 µM, 48 h

In the case of `C=C(C)C1C(=O)N(c2cc(OC)c(OC)c(OC)c2)C1c1ccc(OC)c(OP(=O)(O)O)c1` (stereo not shown) [15a, 2-Methoxy-5-(4-oxo-3-(prop-1-en-2-yl)-1-(3,4,5-trimethoxyphenyl)azetidin-2-yl)-phenyl dihydrogen phosphate], the GI50 [1] is reported as 123 nM, the GI50 [2] is reported as greater than 100000 nM and the GI50 [3] is reported as 85.2 nM. It also gave an IC50 ([4]; MCF7) of 19 nM, a GI50 [5] of 39.8 nM and a GI50 [6] of 80.5 nM. For the same compound, the GI50 [7] was 131 nM, the GI50 [8] was 82 nM and the GI50 [9] was 40.6 nM. It also gave a GI50 [10] of 30100 nM, a GI50 [11] of 75 nM and a GI50 [12] of 90.2 nM. The GI50 [13] was 50.6 nM, the GI50 [14] was 77.1 nM and the GI50 [15] was 80.9 nM. It also gave a GI50 [16] of 53.4 nM, a GI50 [17] of 535 nM and a GI50 [18, 28] of 27.9 nM. It also gave a GI50 ([18]; HL-60, NCI screen) of less than 34 nM, a GI50 [19] of 49.4 nM and a GI50 [20] of 44.8 nM. For the same compound, the GI50 [21] was 32.4 nM, the GI50 [22] was 36.5 nM and the GI50 [23] was 429 nM. For the same compound, the GI50 [24] was 36.1 nM, the GI50 [25] was 43100 nM and the GI50 [26] was 55.5 nM. For the same compound, the GI50 [27] was 45 nM.
`COc1ccc(C2C(C(C)C)C(=O)N2c2cc(OC)c(OC)c(OC)c2)cc1OP(=O)(O)O` (stereo not shown) [15b, 5-(3-Isopropyl-1-(3,4,5-trimethoxyphenyl)-4-oxoazetidin-2-yl)-2-methoxyphenyl dihydrogen phosphate] showed a GI50 [1] of 291 nM, a GI50 [2] greater than 100000 nM and a GI50 [3] of 493 nM. It also gave an IC50 ([4]; MCF7, 72 h, read-out: Antiproliferative Activity IC50) of 145000 ± 7760 nM, a GI50 [5] of 132 nM and a GI50 [6] of 320 nM. For the same compound, the GI50 [7] was 273 nM, the GI50 [8] was 592 nM and the GI50 [9] was 164 nM. The GI50 [10] was greater than 100000 nM, the GI50 [11] was 500 nM and the GI50 [12] was 368 nM. It also gave a GI50 [13] of 300 nM, a GI50 [14] of 359 nM and a GI50 [15] of 368 nM. It also gave a GI50 [16] of 215 nM, a GI50 [17] of 2340 nM and a GI50 [18, 28] of 305 nM. The GI50 [19] was 278 nM, the GI50 [20] was 325 nM and the GI50 [21] was 137 nM. For the same compound, the GI50 [22] was 212 nM, the GI50 [23] was 477 nM and the GI50 [24] was 116 nM. For the same compound, the GI50 [25] was 695 nM, the GI50 [26] was 131 nM and the GI50 [27] was 374 nM.
